One assay has as its target LCK (Homo sapiens (Human), UniProt P06239). As to the kind of experiment: Assay E: LCK biochemical assay (HotSpot Kinase Assay). To be noted: for inhibition at 1 µM: read-out: LCK % inhibition at 1 uM test concentration (Assay E). The procedure: Assay E: LCK Biochemical Assay
The standard protocol below describes the standard HotSpot Kinase Assay run by the Reaction Biology Corporation as a service.
The substrate (poly(EY) (Glu:Tyr (4:1)) and the cofactors were prepared in fresh Reaction Buffer (20 mM Hepes (pH 7.5), 10 mM MgCl2, 2 mM MnCl2, 1 mM EGTA, 0.02% Brij35, 0.02 mg/ml BSA, 0.1 mM Na3VO4, 2 mM DTT, 2% DMSO). To the substrate solution was then added the enzyme (LCK; recombinant human full-length (Genbank Accession #NP_005347); C-terminal His-tagged, expressed in insect cells), and the resulting solution was then gently mixed. The test compounds were dissolved in DMSO and then delivered into the kinase reaction mixture using acoustic liquid handling technology (Echo550; nanoliter range). The reaction mixture was incubated for 20 min at RT and then treated with ^33P-ATP to initiate the reaction. After 2 hours of incubation at RT, kinase activity was detected using Reaction Biology Corporation's proprietary P81 filter-binding method.

In the next assay the target is full-length human BTK (Homo sapiens (Human), UniProt Q06187). Description: Assay A: microfluidic off-chip mobility shift assay against BTK enzyme. In kind it is biochemical.
Sequence of full-length human BTK (Q06187 whole entry): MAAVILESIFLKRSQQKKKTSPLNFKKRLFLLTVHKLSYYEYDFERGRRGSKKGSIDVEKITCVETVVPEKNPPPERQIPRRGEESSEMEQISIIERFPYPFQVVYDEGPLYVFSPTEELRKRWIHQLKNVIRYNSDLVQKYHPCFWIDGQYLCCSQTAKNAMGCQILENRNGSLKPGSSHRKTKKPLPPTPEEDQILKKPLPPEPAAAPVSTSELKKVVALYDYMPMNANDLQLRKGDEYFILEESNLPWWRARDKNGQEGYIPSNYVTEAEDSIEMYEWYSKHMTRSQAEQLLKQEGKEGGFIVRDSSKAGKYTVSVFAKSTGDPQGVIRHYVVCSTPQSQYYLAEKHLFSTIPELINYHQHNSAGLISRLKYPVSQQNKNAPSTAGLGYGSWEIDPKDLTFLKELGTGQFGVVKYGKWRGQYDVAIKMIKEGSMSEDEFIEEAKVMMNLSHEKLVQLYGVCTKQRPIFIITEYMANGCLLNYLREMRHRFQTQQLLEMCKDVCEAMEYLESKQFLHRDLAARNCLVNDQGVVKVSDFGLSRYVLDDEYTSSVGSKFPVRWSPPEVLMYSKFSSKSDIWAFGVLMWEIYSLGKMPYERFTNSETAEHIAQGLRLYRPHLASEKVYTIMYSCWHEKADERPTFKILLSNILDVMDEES
The subject of assay [1] is anti-IgM-induced expression of CD69 on CD19 positive cells (B cells) in human PBMCs. Description: Assay C: PBMC IC50 assay (anti-IgM-induced CD69 expression). The format is cell-based. Conditions: anti-IgM stimulation. In short, it runs like this:
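Freshly isolated human PBMCs (2.5×10^5/well) pretreated 1 h with compound, then stimulated overnight (~16-18 h) with goat F(ab′)2 anti-human IgM. CD69 on CD19+ B cells measured by flow cytometry; IC50 from percentage CD69+ B cells versus concentration.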

Assay [2] relates to IL-1β release by human THP-1 cells. As to the kind of experiment: Assay D: THP-1 cells IL-1β release ELISA assay. The format is cell-based. To be noted: PMA and LPS, BzATP stimulation. The procedure: Assay D: THP-1 Cells IL-1β release ELISA Assay
The assay measures IL-1β release by human THP-1 cells after treatment with PMA and LPS in response to BzATP stimulation in order to evaluate the potency of P2X7 inhibitors. THP-1 cells (2×10^5 cells/mL) in culture medium (RPMI1640 (Gibco, #22400-089)+10% HI-FBS (Gibco, #10082-147)+1% L-Glutamine (Gibco, #25030)+1% Pen/Strep (Gibco, #15140) complemented with 0.5 μM PMA (Sigma, #P8139) were incubated for 30 min at 37° C. At the end of the incubation time, the cells were titrated and washed gently in PBS. The cells were then re-suspended to a density of 1.5×10^5 cell/mL in culture medium complemented with 10 ng/mL LPS (Sigma, #L5293). The cell suspension was dispensed (40 μL/well) into a Corning 384-well plate. After 4 hr of incubation at 37° C., the cells were treated with 20 μL of test compounds at various concentrations. The plate was incubated for 30 min at 37° C. and then the cells were treated with 20 μL of 3.2 mM BzATP (Sigma. #B6396) (0.8 mM final concentration). The plate was incubated for an additional 30 min at 37° C., and then subjected to centrifugation (4 min, 1000 rpm). Supernatant (60 μL) from each well was transferred to a 384-matrix PP plate. The plate was then stored at 4° C. (overnight) or −20° C. for longer term storage. The next day, the […] were measured using a human […] ELISA Kit (R & D systems, catalog #DY201) and read using a SpectraMax Plus 384 Microplate Reader.

For assay [3], the target named is BTK C481S (His-TEV-hsBTK(328-659)(C481S)) (Homo sapiens (Human), UniProt Q06187, C481S). As to the kind of experiment: Assay B: microfluidic off-chip mobility shift assay against BTK C481S enzyme. In kind it is biochemical. To be noted: BTK C481S mutant. The method in brief: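 Substrate-to-phosphopeptide conversion quantified by microfluidic mobility shift with laser-induced fluorescence; IC50 and efficacy from log[inhibitor] vs. % activity.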
Sequence of BTK C481S (His-TEV-hsBTK(328-659)(C481S)) (Q06187 328-659 C481S): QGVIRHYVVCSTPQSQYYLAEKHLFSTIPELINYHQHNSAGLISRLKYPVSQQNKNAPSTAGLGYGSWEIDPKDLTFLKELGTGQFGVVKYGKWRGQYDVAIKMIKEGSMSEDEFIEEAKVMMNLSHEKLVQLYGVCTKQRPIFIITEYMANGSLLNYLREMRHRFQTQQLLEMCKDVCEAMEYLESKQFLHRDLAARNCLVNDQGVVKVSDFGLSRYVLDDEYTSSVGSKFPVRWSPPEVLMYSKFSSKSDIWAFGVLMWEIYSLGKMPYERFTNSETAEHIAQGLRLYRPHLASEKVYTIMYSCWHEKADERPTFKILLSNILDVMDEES

This note sets out measurements from patent US11098041B2 (Merck Patent GmbH, priority 2014, dated 2021).

Sequence of LCK (P06239 whole entry): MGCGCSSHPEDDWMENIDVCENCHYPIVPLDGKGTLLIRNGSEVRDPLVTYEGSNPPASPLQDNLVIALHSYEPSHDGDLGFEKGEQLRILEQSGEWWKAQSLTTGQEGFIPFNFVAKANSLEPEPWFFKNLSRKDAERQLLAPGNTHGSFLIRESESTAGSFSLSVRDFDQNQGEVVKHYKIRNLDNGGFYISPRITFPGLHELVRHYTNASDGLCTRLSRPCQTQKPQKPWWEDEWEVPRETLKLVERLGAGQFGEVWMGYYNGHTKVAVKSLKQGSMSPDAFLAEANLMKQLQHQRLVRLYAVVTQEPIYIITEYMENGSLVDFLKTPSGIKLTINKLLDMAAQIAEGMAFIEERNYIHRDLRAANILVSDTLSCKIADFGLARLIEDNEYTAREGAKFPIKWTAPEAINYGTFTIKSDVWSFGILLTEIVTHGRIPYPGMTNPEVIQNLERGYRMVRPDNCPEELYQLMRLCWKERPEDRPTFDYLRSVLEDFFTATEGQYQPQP

`Cn1cc(-c2nc3c(-c4ccc(CNC(=O)c5cc(C(C)(C)C)no5)c(F)c4)ccnc3[nH]2)cn1` [Example 144, 3-(tert-butyl)-N-(2-fluoro-4-(2-(1-methyl-1H-pyrazol-4-yl)-3H-imidazo[4,5-b]pyridin-7-yl)benzyl)isoxazole-5-carboxamide]: the inhibition at 1 µM at LCK came to 49%.

In the case of `CN1CC=C(c2ccc(-c3nc4c(-c5cccc(N6CCOc7cc(C8CC8)cc(F)c7C6=O)c5CO)ccnc4[nH]3)cc2)CC1` [Example 3, 8-Cyclopropyl-6-fluoro-4-[2-(hydroxymethyl)-3-[2-[4-(1-methyl-1,2,3,6-tetrahydropyridin-4-yl)phenyl]-3H-imidazo[4,5-b]pyridin-7-yl]phenyl]-2,3,4,5-tetrahydro-1,4-benzoxazepin-5-one], the IC50 on full-length human BTK is less than 0.1 µM; in assay [1], 0.1 to 1 µM; in assay [2], 0.1 to 1 µM.

With `CC1CN(c2ccc(-c3nc4c(-c5ccc(CNC(=O)c6noc(C(C)(C)C)n6)c(F)c5)ccnc4[nH]3)nc2)CC(C)O1` (stereo not shown) [Example 81, 5-tert-Butyl-N-[(4-[2-[5-(2,6-dimethylmorpholin-4-yl)pyridin-2-yl]-3H-imidazo[4,5-b]pyridin-7-yl]-2-fluorophenyl)methyl]-1,2,4-oxadiazole-3-carboxamide], the IC50 (at full-length human BTK; in assay [3]; in assay [1]) was less than 0.1 µM in each case. The inhibition at 1 µM at LCK was found to be 15%.

On to `CC(C)(C)c1ccc(C(=O)NCc2ccc(-c3ccnc4[nH]c(-c5ccc(C(=O)N6CCOCC6)cc5)nc34)cc2F)cc1` [Example 118, 4-tert-Butyl-N-(2-fluoro-4-{2-[4-(morpholine-4-carbonyl)-phenyl]-3H-imidazo[4,5-b]pyridin-7-yl}-benzyl)-benzamide], for which the IC50 (on full-length human BTK; in assay [3]; in assay [1]; in assay [2]) was less than 0.1 µM throughout.

As for `Cc1c(NC(=O)c2ccc(C(C)(C)C)cc2)cccc1-c1ccnc2[nH]c(-c3cnn(C)c3)nc12` [Example 9, 4-tert-Butyl-N-{2-methyl-3-[2-(1-methyl-1H-pyrazol-4-yl)-3H-imidazo[4,5-b]pyridin-7-yl]-phenyl}-benzamide], the results for the IC50 in assay [1] and in assay [2] were 1 to 5 µM and 0.1 to 1 µM, respectively.

`CC(C)(C)c1nnc(C(=O)NCc2ccc(-c3ccnc4[nH]c(C5=CCOCC5)nc34)cc2F)o1` [Example 138, 5-(tert-butyl)-N-(4-(2-(3,6-dihydro-2H-pyran-4-yl)-3H-imidazo[4,5-b]pyridin-7-yl)-2-fluorobenzyl)-1,3,4-oxadiazole-2-carboxamide]: the IC50 at full-length human BTK is less than 0.1 µM; in assay [1] it was 0.1 to 1 µM. Moreover, at LCK, the inhibition at 1 µM was found to be 40%.

Consider `Cc1c(NC(=O)c2ccc(C(C)(C)C)cc2)cccc1-c1ccnc2[nH]c(-c3ccc(C(=O)O)cc3)nc12` [Example 153, 4-{7-[3-(4-tert-Butyl-benzoylamino)-2-methyl-phenyl]-3H-imidazo[4,5-b]pyridin-2-yl}-benzoic acid], for which the IC50 was less than 0.1 µM at full-length human BTK, less than 0.1 µM in assay [3], more than 5 µM in assay [1] and 0.1 to 1 µM in assay [2].

For the molecule `O=C(c1ccc(-c2nc3c(-c4cccc(N5CCc6cc(C7CC7)ccc6C5=O)c4CO)ccnc3[nH]2)cc1)N1CCOCC1` [Example 6, 6-Cyclopropyl-2-(2-hydroxymethyl-3-{2-[4-(morpholine-4-carbonyl)-phenyl]-3H-imidazo[4,5-b]pyridin-7-yl}-phenyl)-3,4-dihydro-2H-isoquinolin-1-one], the concentration for half-maximal inhibition (IC50) on full-length human BTK is less than 0.1 µM; in assay [3], less than 0.1 µM; in assay [1], 1 to 5 µM; in assay [2], 0.1 to 1 µM.

As for `CN(C)c1ccc(-c2nc3c(-c4ccc(CNC(=O)c5noc(C(C)(C)C)n5)c(F)c4)ccnc3[nH]2)nc1` [Example 146, 5-tert-Butyl-[1,2,4]oxadiazole-3-carboxylic acid 4-[2-(5-dimethylamino-pyridin-2-yl)-3H-imidazo[4,5-b]pyridin-7-yl]-2-fluoro-benzylamide], the IC50 at full-length human BTK was less than 0.1 µM; in assay [1], 0.1 to 1 µM. In addition, the inhibition at 1 µM on LCK was 11%.

As to `CC(C)(C)c1nc(C(=O)NCc2ccc(-c3ccnc4[nH]c(-c5ccc(N6CCC(O)CC6)cn5)nc34)cc2F)no1` [Example 84, 5-tert-butyl-N-[(2-fluoro-4-[2-[5-(4-hydroxypiperidin-1-yl)pyridin-2-yl]-3H-imidazo[4,5-b]pyridin-7-yl]phenyl)methyl]-1,2,4-oxadiazole-3-carboxamide], the IC50 is less than 0.1 µM on full-length human BTK, less than 0.1 µM in assay [3], less than 0.1 µM in assay [1] and 585 µM against LCK.

Turning to `CC(C)(C)c1nc(C(=O)NCc2ccc(-c3ccnc4[nH]c(-c5ccc(N6CCC(F)(F)CC6)cn5)nc34)cc2F)no1` [Example 82, 5-tert-Butyl-N-[(4-[2-[5-(4,4-difluoropiperidin-1-yl)pyridin-2-yl]-3H-imidazo[4,5-b]pyridin-7-yl]-2-fluorophenyl)methyl]-1,2,4-oxadiazole-3-carboxamide], the IC50 (at full-length human BTK; in assay [1]) was less than 0.1 µM in each case. For the same molecule, the inhibition at 1 µM on LCK worked out at 7.3%.

As to `Cn1cc(-c2nc3c(-c4ccc(CN5Cc6cc(C(C)(C)C)sc6C5=O)c(F)c4)ccnc3[nH]2)cn1` [Example 92, 2-tert-Butyl-5-([2-fluoro-4-[2-(1-methyl-1H-pyrazol-4-yl)-3H-imidazo[4,5-b]pyridin-7-yl]phenyl]methyl)-4H,5H,6H-thieno[2,3-c]pyrrol-6-one], the figures for the IC50 (at full-length human BTK; in assay [3]; in assay [1]) were less than 0.1 µM, less than 0.1 µM and 0.1 to 1 µM, respectively. Further, the inhibition at 1 µM at LCK was found to be 29%.

Take `Cn1cc(-c2nc3c(-c4ccc(CNC(=O)c5ccc(C(C)(C)C)cc5)c(C(F)(F)F)c4)ccnc3[nH]2)cn1` [Example 108, 4-tert-Butyl-N-{4-[2-(1-methyl-1H-pyrazol-4-yl)-3H-imidazo[4,5-b]pyridin-7-yl]-2-trifluoromethyl-benzyl}-benzamide]: the IC50 (on full-length human BTK; in assay [3]; in assay [1]) was less than 0.1 µM throughout. For the same molecule, the inhibition at 1 µM at LCK was 17%.

Turning to `CC(C)(C)c1ccc2c(c1)CCN(Cc1ccc(-c3ccnc4[nH]c(-c5ccc(C(=O)N6CCOCC6)cc5)nc34)cc1)C2=O` [Example 115, 6-tert-Butyl-2-(4-{2-[4-(morpholine-4-carbonyl)-phenyl]-3H-imidazo[4,5-b]pyridin-7-yl}-benzyl)-3,4-dihydro-2H-isoquinolin-1-one], the IC50 on full-length human BTK was less than 0.1 µM; in assay [3], less than 0.1 µM; in assay [1] it was 0.1 to 1 µM; in assay [2] it was less than 0.1 µM.

As to `Cc1c(NC(=O)c2ccc(C(C)(C)C)cc2)cccc1-c1ccnc2[nH]c(-c3ccc(C(=O)N4CCOCC4)cc3)nc12` [Example 5, 4-(tert-butyl)-N-(2-methyl-3-(2-(4-(morpholine-4-carbonyl)phenyl)-3H-imidazo[4,5-b]pyridin-7-yl)phenyl)benzamide], the IC50 in assay [1] was 1 to 5 µM; in assay [2] it was less than 0.1 µM.

The IC50 is the concentration that inhibits the measured activity by half.
